Assay results as given in paper PMC5516028, “Molecular tools for GABAA receptors: High affinity ligands for β1-containing subtypes” (Scientific Reports, 2017).
Where “and” joins values, the source holds several entries; their conditions need not be identical. Equal values may be shown once. Read-outs that look alike come from different tables or passages of the source.

Legend:
Assay type in all cases: cell-based
[1] = molecular target: T1, α1β2 GABAA receptors (Rattus norvegicus, UniProt P62813+P63138); assay: Two electrode voltage clamp in Xenopus laevis oocytes, α1β2
T1 construct: expressed in transfected cells; host or cells: Xenopus laevis oocytes, mRNA injected
Text: (§1) cDNA’s of rat GABAA receptor subunits α1, α4, β1, β2, β3 and γ2S were cloned as described. cDNAs of the rat subunits α2, α3 and α5 were gifts from P. Malherbe, that of α6 and γ1 were gifts of P. Seeburg and that of δ was a gift of C. Czajkowski. The mutants were constructed using the Q5 Site-Directed Mutagenesis Kit (New England Biolabs) following manufacturer’s instruction. We used the wild-type rat β3-pCI vector as template and the primers […] and […] resulting in a substitution of amino acid N41 (AAC) to R (AGG). We used the wild-type rat β1-pCI vector as template and the primers […] and […] resulting in a substitution of amino acid R41 (CGG) to N (AAC). The mutated subunits were confirmed by sequencing.
(§2) In vitro transcription of mRNA was based on the cDNA expression vectors encoding for rat GABAA receptor subunits α1–6, β1-3, γ1,2, δ and the two β mutants (β1R41N and β3N41R)[40]. After linearizing the cDNA vectors with appropriate restriction endonucleases, the cDNA was purified and concentrated with the DNA Clean and Contentrator ^TM Kit (Zymoresearch, Catalog No. D4005). Capped transcripts of the purified cDNA were produced using the mMESSAGE mMACHINE® T7 transcription kit (Ambion, TX, USA) and polyadenylated using the Ambion PolyA tailing kit (Ambion). After transcription and polyadenylation the RNA was purified with the MEGAclear ^TM Kit (Ambion, Catalog No. AM1908). The final RNA concentration was measured on NanoDrop® ND-1000 and finally diluted and stored in diethylpyrocarbonate-treated water at −80 °C. For the microinjection, the RNA of αβ receptor combinations was mixed at 1:1 ratio (which leads to αβ receptors that consist of predominantly 3 beta and 2 alpha subunits[27]), for αkβlγm (k = 1–3, l = 1, 3, m = 1, 2) receptors at 1:1:5 ratio, for αkβ3γ2 (k = 4–6) and αkβlδ (k = 1, 4 and 6, l = 1, 3) receptor combinations at 3:1:5 ratio.
(§3) Mature female Xenopus laevis (Nasco, WI) were anesthetized in a bath of ice-cold 0.17% Tricain (Ethyl-m-aminobenzoate, Sigma, MO) before decapitation in full accordance with all rules of the Austrian animal protection law (see http://www.ris.bka.gv.at/Dokumente/BgblAuth/BGBLA_2012_I_114/BGBLA_2012_I_114.pdf) and the Austrian animal experiment by-laws (see https://www.ris.bka.gv.at/Dokumente/BgblAuth/BGBLA_2012_II_522/BGBLA_2012_II_522.pdf) which implement the European Directive 2010/63/EU (see http://eur-lex.europa.eu/LexUriServ/LexUriServ.do?uri=OJ:L:2010:276:0033:0079:en:PDF) into the Austrian law (all information accessed on July 27, 2016). The frog’s ovaries were transferred to ND96 medium (96 mM NaCl, 2 mM KCl, 1 mM MgCl2, 5 mM HEPES; pH 7.5). Stage 5–6 oocytes with the follicle cell layer around them were roughly dissected with forceps into packages of 10–15 cells and washed in Ca^2+-free ND96 medium. Cells were then digested with collagenase (type IA, Sigma, NO, 1 mg/mL ND96) at 18 °C shaking at 30 rpm for 30–60 minutes and gently defolliculated with the aid of a glass pipette with appropriate tip diameter and a platinum loop. Defolliculated cells were stored at 18 °C for at least 6 hours in ND96 solution containing penicillin G (10000 IU/100 mL) and streptomycin (10 mg/100 mL) in order to preselect and exclude damaged cells from further treatment. Healthy defolliculated oocytes were injected with an aqueous solution of mRNA. A total of 4.5 ng of mRNA per oocyte was injected with a Nanoject II (Drummond). After injection of mRNA, oocytes were incubated at 18 °C (ND96 + antibiotic) for 2–3 days for αβ receptors and for 3–4 days for αβγ or αβδ receptors before recording. When cells were measured at later time points, oocytes were stored at +4 °C instead of 18 °C.
(§4) For electrophysiological recordings, oocytes were placed on a nylon-grid in a bath of Ca^2+-containing NDE solution medium [96 mM NaCl, 5 mM HEPES-NaOH (pH 7.5), 2 mM KCl, 1 mM MgCl2, 1.8 mM CaCl2].

[2] = molecular target: T2, α1β1 GABAA receptors (Rattus norvegicus, UniProt P15431+P62813); assay: Two electrode voltage clamp in Xenopus laevis oocytes, α1β1; conditions: for activity at 0.3 µM: 300 nM; for EC50: read-out: EC50
T2 construct: expressed in transfected cells; host or cells: Xenopus laevis oocytes, mRNA injected
Text: as §1, §2, §3, §4

[3] = molecular target: T3, α3β3 GABAA receptors (Rattus norvegicus, UniProt P20236+P63079); assay: Two electrode voltage clamp in Xenopus laevis oocytes, α3β3
T3 construct: expressed in transfected cells; host or cells: Xenopus laevis oocytes, mRNA injected
Text: as §1, §2, §3, §4

[4] = molecular target: T4, α1β1R41N GABAA receptors (Rattus norvegicus, UniProt P15431+P62813, R66N); assay: Two electrode voltage clamp in Xenopus laevis oocytes, mutant α1β1R41N; conditions: for current as % of control at 0.1 µM: 100nM; for current as % of control at 0.1 µM / current as % of control at 0.3 µM / current as % of control at 1 µM / current as % of control at 3 µM / current as % of control at 10 µM / current as % of control at 30 µM: read-out: % of control current at EC3-5; for current as % of control at 0.3 µM: 300nM
T4 construct: expressed in transfected cells; host or cells: Xenopus laevis oocytes, mRNA injected
Text: as §1, §2, §3, §4

[5] = molecular target: T5, α4β3γ2 GABAA receptors (Rattus norvegicus, UniProt P28471+P63079); assay: Two electrode voltage clamp in Xenopus laevis oocytes, α4β3γ2
T5 construct: expressed in transfected cells; host or cells: Xenopus laevis oocytes, mRNA injected
Text: as §1, §2, §3, §4

[6] = molecular target: T6, α1β3 GABAA receptors (Rattus norvegicus, UniProt P62813+P63079); assay: Two electrode voltage clamp in Xenopus laevis oocytes, α1β3; conditions: for activity at 0.01 µM: 10 nM; for EC50: co-applied with GABA EC3-5, read-out: EC50
T6 construct: expressed in transfected cells; host or cells: Xenopus laevis oocytes, mRNA injected
Text: as §1, §2, §3, §4

[7] = molecular target: T7, α1β3N41R GABAA receptors (Rattus norvegicus, UniProt P62813+P63079, N66R); assay: Two electrode voltage clamp in Xenopus laevis oocytes, mutant α1β3N41R; conditions: co-applied with GABA EC3-5, read-out: EC50 values for the mutated receptors
T7 construct: expressed in transfected cells; host or cells: Xenopus laevis oocytes, mRNA injected
Text: as §1, §2, §3, §4

[8] = read-out: efficacy, % of control current (GABA EC3-5 = 100%), α1β1
[9] = read-out: efficacy, % of control current (GABA EC3-5 = 100%), α1β3

T5 sequence (P28471 36-552): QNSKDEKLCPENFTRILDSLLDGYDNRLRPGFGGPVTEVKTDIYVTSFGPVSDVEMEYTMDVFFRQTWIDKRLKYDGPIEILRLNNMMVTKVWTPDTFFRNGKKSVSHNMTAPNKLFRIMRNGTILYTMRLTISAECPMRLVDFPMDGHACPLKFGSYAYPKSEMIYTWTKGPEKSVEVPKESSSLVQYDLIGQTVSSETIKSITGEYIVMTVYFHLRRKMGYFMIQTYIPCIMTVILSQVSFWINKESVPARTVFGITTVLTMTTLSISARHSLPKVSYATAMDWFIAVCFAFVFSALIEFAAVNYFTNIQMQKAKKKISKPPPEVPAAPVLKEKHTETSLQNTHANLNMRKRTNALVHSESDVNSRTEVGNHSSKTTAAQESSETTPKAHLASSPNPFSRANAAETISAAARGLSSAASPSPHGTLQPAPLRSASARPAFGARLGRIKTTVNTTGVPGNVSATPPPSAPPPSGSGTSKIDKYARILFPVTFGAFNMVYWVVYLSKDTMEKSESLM
T5 sequence (P63079 26-473): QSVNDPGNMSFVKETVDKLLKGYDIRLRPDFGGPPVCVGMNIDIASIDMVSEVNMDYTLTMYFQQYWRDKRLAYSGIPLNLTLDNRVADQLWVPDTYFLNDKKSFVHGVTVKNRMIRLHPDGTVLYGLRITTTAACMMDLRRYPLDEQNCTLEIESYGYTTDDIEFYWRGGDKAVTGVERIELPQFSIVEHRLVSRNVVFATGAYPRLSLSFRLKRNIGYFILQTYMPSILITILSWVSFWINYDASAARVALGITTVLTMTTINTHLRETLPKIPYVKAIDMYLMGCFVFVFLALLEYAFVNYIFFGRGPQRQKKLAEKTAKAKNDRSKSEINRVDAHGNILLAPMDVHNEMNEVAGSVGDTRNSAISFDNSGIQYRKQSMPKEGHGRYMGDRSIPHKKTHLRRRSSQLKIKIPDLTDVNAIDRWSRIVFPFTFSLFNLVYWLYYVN
T5 sequence (P18508 39-466 partner): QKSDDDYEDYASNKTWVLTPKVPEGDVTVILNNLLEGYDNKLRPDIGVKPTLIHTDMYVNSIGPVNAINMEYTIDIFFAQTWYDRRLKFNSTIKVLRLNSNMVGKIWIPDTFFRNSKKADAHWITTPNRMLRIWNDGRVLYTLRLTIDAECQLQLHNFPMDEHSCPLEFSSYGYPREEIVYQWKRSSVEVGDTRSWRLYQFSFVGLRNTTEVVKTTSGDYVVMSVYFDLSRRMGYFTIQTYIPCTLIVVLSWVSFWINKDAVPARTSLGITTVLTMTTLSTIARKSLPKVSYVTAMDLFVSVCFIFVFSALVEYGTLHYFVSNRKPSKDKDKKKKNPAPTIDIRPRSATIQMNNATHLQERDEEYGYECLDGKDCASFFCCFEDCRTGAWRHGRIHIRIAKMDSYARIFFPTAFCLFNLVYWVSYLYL
T1 sequence (P62813 28-455): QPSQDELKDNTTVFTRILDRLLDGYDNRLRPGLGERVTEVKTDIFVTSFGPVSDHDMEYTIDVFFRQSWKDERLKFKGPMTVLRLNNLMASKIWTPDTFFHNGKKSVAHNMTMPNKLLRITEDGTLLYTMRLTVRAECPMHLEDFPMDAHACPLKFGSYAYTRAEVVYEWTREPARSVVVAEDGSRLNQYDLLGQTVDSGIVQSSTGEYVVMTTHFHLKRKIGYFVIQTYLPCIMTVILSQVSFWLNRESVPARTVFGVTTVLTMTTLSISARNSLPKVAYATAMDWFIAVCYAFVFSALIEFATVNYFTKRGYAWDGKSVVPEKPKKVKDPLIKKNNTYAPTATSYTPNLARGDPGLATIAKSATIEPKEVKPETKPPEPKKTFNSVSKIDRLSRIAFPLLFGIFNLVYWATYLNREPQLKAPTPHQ
T1 sequence (P63138 25-474 limits assumed): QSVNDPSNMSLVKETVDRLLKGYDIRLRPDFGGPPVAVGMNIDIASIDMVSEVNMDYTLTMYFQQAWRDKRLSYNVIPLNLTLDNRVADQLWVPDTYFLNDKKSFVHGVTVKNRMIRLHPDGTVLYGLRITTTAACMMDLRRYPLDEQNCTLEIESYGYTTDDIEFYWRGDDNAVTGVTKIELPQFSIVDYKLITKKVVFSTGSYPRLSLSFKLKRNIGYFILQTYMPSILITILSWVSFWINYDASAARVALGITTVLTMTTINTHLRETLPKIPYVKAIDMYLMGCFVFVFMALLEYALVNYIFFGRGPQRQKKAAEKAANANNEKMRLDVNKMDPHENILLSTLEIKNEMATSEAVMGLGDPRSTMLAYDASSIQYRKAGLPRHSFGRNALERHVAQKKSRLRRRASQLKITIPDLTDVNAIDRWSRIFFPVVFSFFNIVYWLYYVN
T2 sequence (P62813 28-455): as the sequence (P62813 28-455) above
T2 sequence (P15431 26-474): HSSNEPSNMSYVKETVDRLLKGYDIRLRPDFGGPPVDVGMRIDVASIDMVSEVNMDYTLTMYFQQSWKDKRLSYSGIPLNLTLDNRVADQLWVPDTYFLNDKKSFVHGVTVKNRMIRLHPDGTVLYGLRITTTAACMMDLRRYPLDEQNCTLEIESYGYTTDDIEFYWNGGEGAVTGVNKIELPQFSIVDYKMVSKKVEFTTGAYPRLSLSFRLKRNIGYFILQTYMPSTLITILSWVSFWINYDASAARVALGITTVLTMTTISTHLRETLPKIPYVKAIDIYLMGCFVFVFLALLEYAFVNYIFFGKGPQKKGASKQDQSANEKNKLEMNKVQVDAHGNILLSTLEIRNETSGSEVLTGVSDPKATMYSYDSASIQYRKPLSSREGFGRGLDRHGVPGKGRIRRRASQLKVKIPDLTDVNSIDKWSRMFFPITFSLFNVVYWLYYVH
T6 sequence (P62813 28-455): as the sequence (P62813 28-455) above
T6 sequence (P63079 26-473): as the sequence (P63079 26-473) above
T4 sequence (P62813 28-455): as the sequence (P62813 28-455) above
T4 sequence (P15431 26-474 R66N): as the sequence (P15431 26-474) above, with R41N counted along it
T3 sequence (P20236 29-493): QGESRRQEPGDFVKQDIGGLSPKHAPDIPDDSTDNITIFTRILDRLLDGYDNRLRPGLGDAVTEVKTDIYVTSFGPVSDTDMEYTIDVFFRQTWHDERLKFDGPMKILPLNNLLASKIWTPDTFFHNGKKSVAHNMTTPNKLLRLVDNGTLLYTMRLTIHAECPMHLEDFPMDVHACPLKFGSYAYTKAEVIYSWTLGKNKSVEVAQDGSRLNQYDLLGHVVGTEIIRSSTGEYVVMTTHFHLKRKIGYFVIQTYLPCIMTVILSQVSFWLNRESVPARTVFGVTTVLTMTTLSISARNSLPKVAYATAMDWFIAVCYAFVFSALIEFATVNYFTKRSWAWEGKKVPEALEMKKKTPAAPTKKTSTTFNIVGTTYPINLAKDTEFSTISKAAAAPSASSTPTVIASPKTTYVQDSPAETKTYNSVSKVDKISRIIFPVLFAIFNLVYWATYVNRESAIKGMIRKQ
T3 sequence (P63079 26-473): as the sequence (P63079 26-473) above
T7 sequence (P62813 28-455): as the sequence (P62813 28-455) above
T7 sequence (P63079 26-473 N66R): as the sequence (P63079 26-473) above, with N41R counted along it

| EC50 [1] [µM] | Hill slope (nH) ([1]; α1β2) | activity at 0.3 µM [2, 8] [%] | Hill slope (nH) ([2]; α1β1) | EC50 ([2]; α1β1 (α1+/β1− interface)) [µM] | current as % of control at 0.1 µM [4] [%] | current as % of control at 0.3 µM [4] [%] | current as % of control at 1 µM [4] [%] | current as % of control at 3 µM [4] [%] | current as % of control at 10 µM [4] [%] | current as % of control at 30 µM [4] [%] | activity at 0.01 µM [6, 9] [%] | activity at 3 µM [6, 9] [%] | Hill slope (nH) ([6]; α1β3) | EC50 ([6]; α1β3) | EC50 [7] [µM] | SMILES | other results |
| --- | --- | --- | --- | --- | --- | --- | --- | --- | --- | --- | --- | --- | --- | --- | --- | --- | --- |
| 1.05 | 2.0±0.7 | 299 ± 29.7 | 1.0±0.4 | ~0.2 | 70 ± 1 | 65 ± 6 | 85 ± 7 | 100 ± 8 | 125 ± 5 | 110 ± 10 | 108 ± 5.1 | 254 ± 28.7 | 1.1±0.5 | 1.47 µM and 2.2 µM | 0.2 | Nc1ccc(-n2nc3c4cc(Cl)ccc4[nH]cc-3c2=O)cc1 [Compound 3, 8-Chloro-2-(4-aminophenyl)-2H-pyrazolo[4,3-c]quinolin-3(5H)-one] | activity at 30 µM ([1]; read-out: efficacy, % of control current (GABA EC3-5 = 100%), α1β2, 30 µM): 106 ± 11.4%; activity at 0.01 µM ([2]; read-out: efficacy, % of control current (GABA EC3-5 = 100%), α1β1, 10 nM): 116 ± 3.6%; activity at 10 µM ([2]; read-out: efficacy, % of control current (GABA EC3-5 = 100%), α1β1, 10 µM): 403 ± 50.9%; EC50 ([2]; α1β1, co-applied with GABA EC3-5): 0.22 µM; EC50 [3]: 1.9 µM; activity at 0.001 µM ([3]; read-out: efficacy, % of control current (GABA EC3-5 = 100%), α3β3, 1 nM): 103 ± 3.1%; activity at 1 µM ([3]; read-out: efficacy, % of control current (GABA EC3-5 = 100%), α3β3, 1 µM): 144 ± 6.3%; EC50 [5]: > 10 µM; activity at 0.001 µM ([5]; read-out: efficacy, % of control current (GABA EC3-5 = 100%), α4β3γ2, 1 nM): 99.7 ± 2%; activity at 0.003 µM ([5]; read-out: efficacy, % of control current (GABA EC3-5 = 100%), α4β3γ2, 3 nM): 111%; activity at 0.01 µM ([5]; read-out: efficacy, % of control current (GABA EC3-5 = 100%), α4β3γ2, 10 nM): 107 ± 3.4%; activity at 0.03 µM ([5]; read-out: efficacy, % of control current (GABA EC3-5 = 100%), α4β3γ2, 30 nM): 114%; activity at 0.1 µM ([5]; read-out: efficacy, % of control current (GABA EC3-5 = 100%), α4β3γ2, 100 nM): 122 ± 4.6%; activity at 1 µM ([5]; read-out: efficacy, % of control current (GABA EC3-5 = 100%), α4β3γ2, 1 µM): 137 ± 6.7%; activity at 10 µM ([5]; read-out: efficacy, % of control current (GABA EC3-5 = 100%), α4β3γ2, 10 µM): 104 ± 12.6%; activity at 0.001 µM ([6]; read-out: efficacy, % of control current (GABA EC3-5 = 100%), α1β3, 1 nM): 106 ± 1.9%; activity at 0.1 µM ([6]; read-out: efficacy, % of control current (GABA EC3-5 = 100%), α1β3, 100 nM): 125 ± 4.6%; activity at 0.3 µM ([6]; read-out: efficacy, % of control current (GABA EC3-5 = 100%), α1β3, 300 nM): 128 ± 8%; efficacy, % of control current (GABA EC3-5 = 100%) ([6]; α1β3, 100 nM, 0.1 µM): 117.8±5.9% |
| 1.15 | 1.1±0.3 | 292 ± 24.5 | 1.3±0.4 | 0.13 | 80 ± 10 | 100 ± 10 | 140 ± 16 | 195 ± 20 | 205 ± 20 | 150 ± 10 | 106 ± 1.6 | 839 ± 105 | 1.5±0.5 | 1.84 µM | 0.98 | COc1ccc(-n2nc3c4cc(Cl)ccc4[nH]cc-3c2=O)cc1 [Compound 1, 8-Chloro-2-(4-methoxyphenyl)-2H-pyrazolo[4,3-c]quinolin-3(5H)-one] | activity at 0.001 µM ([1]; read-out: efficacy, % of control current (GABA EC3-5 = 100%), α1β2, 1 nM): 100%; activity at 10 µM ([1]; read-out: efficacy, % of control current (GABA EC3-5 = 100%), α1β2, 10 µM): 644 ± 57%; activity at 0.001 µM ([2]; read-out: efficacy, % of control current (GABA EC3-5 = 100%), α1β1, 1 nM): 102 ± 1.7%; activity at 0.003 µM ([2]; read-out: efficacy, % of control current (GABA EC3-5 = 100%), α1β1, 3 nM): 100.5 ± 0.5%; activity at 0.03 µM ([2]; read-out: efficacy, % of control current (GABA EC3-5 = 100%), α1β1, 30 nM): 138 ± 13.3%; activity at 30 µM ([2]; read-out: efficacy, % of control current (GABA EC3-5 = 100%), α1β1, 30 µM): 174 ± 34.2%; EC50 ([4]; co-applied with GABA EC3-5): 0.8 µM |
